Assay results reported in patent publication US20080039437A1, “New Pyridine Analogues III” (ASTRAZENECA AB, priority 2006, published 2008).

Molecular target: T1, P2Y12 receptor (Homo sapiens, UniProt Q9H244)
T1 construct: expressed in transfected cells; host or cells: CHO cells (membranes)
Test: Functional inhibition of 2-Me-S-ADP induced P2Y12 signalling (35S-GTPγS, cell membranes)
Format: biochemical
Details: membranes from P2Y12 transfected CHO-cells, EC80 of agonist 2-methyl-thio-adenosine diphosphate, 30° C., 45 min
Experimental: Functional inhibition of the P2Y12 receptor can be measured by in vitro assays using cell membranes from P2Y12 transfected CHO-cells, the methodology is indicated below.
Functional inhibition of 2-Me-S-ADP induced P2Y12 signalling: 5 μg of membranes were diluted in 200 μl of 200 mM NaCl, 1 mM MgCl2, 50 mM HEPES (pH 7.4), 0.01% BSA, 30 μg/ml saponin and 10 μM GDP. To this was added an EC80 concentration of agonist (2-methyl-thio-adenosine diphosphate), the required concentration of test compound and 0.1 μCi ^35S-GTPγS. The reaction was allowed to proceed at 30° C. for 45 min. Samples were then transferred on to GF/B filters using a cell harvester and washed with wash buffer (50 mM Tris (pH 7.4), 5 mM MgCl2, 50 mM NaCl). Filters were then covered with scintillant and counted for the amount of ^35S-GTPγS retained by the filter. Maximum activity was that determined in the presence of the agonist and minimum activity in the absence of the agonist following subtraction of the value determined for non-specific activity. The effect of compounds at various concentrations was plotted according to the equation y=A+((B−A)/(1+((C/x)ˆD))) and IC50 estimated where
A is the bottom plateau of the curve i.e. the final minimum y value
B is the top of the plateau of the curve i.e. the final maximum y value
C is the x value at the middle of the curve. This represents the log EC50 value when A+B=100 […]

T1 sequence (Q9H244 whole entry): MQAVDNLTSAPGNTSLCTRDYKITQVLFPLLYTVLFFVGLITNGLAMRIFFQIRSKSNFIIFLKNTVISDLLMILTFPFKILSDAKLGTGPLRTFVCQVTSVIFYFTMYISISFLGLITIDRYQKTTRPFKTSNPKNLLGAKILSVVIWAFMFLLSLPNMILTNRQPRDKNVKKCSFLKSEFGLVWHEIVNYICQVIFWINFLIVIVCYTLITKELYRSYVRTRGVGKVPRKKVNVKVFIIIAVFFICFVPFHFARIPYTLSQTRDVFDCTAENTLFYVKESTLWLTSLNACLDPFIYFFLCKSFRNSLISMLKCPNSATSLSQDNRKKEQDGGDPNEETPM

Row | IC50 | Compound
1 | 490 nM | CCCCS(=O)(=O)NC(=O)C1CCN(c2nc(C(F)F)c(C(=O)OCC)cc2C#N)CC1 [Example 41, Ethyl 6-(4-{[(butylsulfonyl)amino]carbonyl}piperidin-1-yl)-5-cyano-2-(difluoromethyl)nicotinate]
2 | 270 nM | CCOC(=O)c1cc(C#N)c(N2CC(C(=O)NS(=O)(=O)CC3CCC(C)CC3)C2)nc1CF (centres unmarked) [Example 74, Ethyl 5-cyano-2-(fluoromethyl)-6-{3-[({[(4-methylcyclohexyl)methyl]sulfonyl}amino)carbonyl]azetidin-1-yl}nicotinate]
